Results on one substance are retold here after US10617736B2, “Method for modulating insulin-independent glucose transport using teneurin C-terminal associated peptide (TCAP)” (priority 2014, dated 2020).

Where two headings read alike, the source gives them in different places. Ends that are not written are not given here.

What all share (assay type): in vivo, rat
The test system of data set [1] is male Wistar rats. Briefly: Haematology assays in normal Wistar rats. The method, then: (§1) Whole blood samples were collected into plastic microcentrifuge tubes with EDTA-coated capillary tubes. A minimum sample volume of 20 μL was required for the analyses by the Toronto Centre for Phenogenomics (Mount Sinai Hospital, Toronto) using the Hemavet 950Fs Hematology Analyzer. From the whole blood samples, serum was separated from the cells and fibrin by centrifuging the collection tubes for five minutes at 7000 g at 25° C. Afterwards, immediately following collection of serum, the samples were stored and maintained at a freezing temperature of −80° C.
(§2) Haematology assays were performed on physiological normal rat serum and from Type II Diabetic GK rats obtained at the end of the in vivo studies noted herein in which TCAP-1 was administered to the normal rats and plasma glucose levels were monitored over the course of 1-2 weeks. […] Results are illustrated in FIGS. 6A to 6L.

The nature of data set [2]: Uptake and clearance of TCAP-1 in plasma after IV or SC injection (TCAP ELISA). The following applies: for half-life: rat, in vivo. The procedure:
Male Wistar rats weighing 400-450 g were obtained from Charles River Laboratories (Montreal, Canada). Rats were singly-housed in standard Plexiglas shoebox cages under standard laboratory conditions, (12 h light:dark cycle, lights on at 0700) with food and water available ad libitum. Testing took place between 0900 and 1200 hours. Rats were given one week to acclimatize to the laboratory before surgery. Rats were anesthetized with isoflurane (2-3% in 100% O2) and a catheter was implanted into the jugular vein.
The K37 biotinylated TCAP was diluted into 200 ul physiological saline to contain 10.5 ug for 5 nM/kg dose and 52.5 ug for 25 nM/kg dose. The rats weighed 400-450 g. 200 ul of peptide containing solution was delivered through the cannula, different syringe containing saline was connected and 200 ul of saline was delivered to push the peptide into the bloodstream. The third syringe containing the heparin solution was used to fill the line with the lock, 150-200 ul. After 5 min, the lock solution was aspirated into the syringe, and also about 150 ul of the blood were aspirated and disposed off in case of the local contamination with high peptide concentrations. 200 ul of the blood was sampled in a fresh syringe, line flushed with saline first (200 ul) and heparin saline next (150-200 ul).
(§3) Rats were gently restrained, cannula clamped and unplugged, 1 ml syringe with blunt needle attached to the end of the polyethylene 50 line and the lock solution containing heparin 50-100 U/ml was removed. The line was clamped and a new syringe with a blunt needle attached for withdrawing about 200 ul blood. The line was clamped and syringe removed to recover the blood. This blood sample was used to determine a baseline level of activity. All blood samples were incubated at a room temperature for 10-20 min and centrifuged at 3000 rpm for 5 min to recover the serum. The serum was frozen on dry ice and kept at −80° C. until the assay.
as §3, with “K37 TCAP was biotin labeled according to the biotinylation method above. Rats” for “Rats”
For IV administration, rats were gently restrained during the injection procedure. The IV cannula was unplugged and the lock solution (150-200 μl of 50-100 U/ml of heparin, Sigma Scientific) was removed. To obtain a baseline level of activity, 200 μl of blood was withdrawn prior to injection. 200 μl of TCAP-containing solution was delivered through the cannula, followed by 200 μl of saline to push the TCAP solution through the cannula. 150-200 μl of lock solution was injected to fill the catheter. For subcutaneous (SC) administration, rats were gently restrained and injected under the skin with 200 μl of TCAP-1-containing solution with a 23 gauge needle
Blood samples were obtained from the jugular catheter. Rats were gently restrained, and the IV cannula was unplugged. The lock solution was aspirated along with 150 μl of blood. This mixture was discarded in case of local contamination with high peptide concentrations. A sample of200 μl of blood was obtained in a fresh syringe. The catheter was then flushed with 200 μl of saline and then filled with 150-200 μl of lock solution. Lateral tail vein blood samples were obtained from lightly restrained rats whereby 200 μl of blood was obtained using a 23-gauge needle. A final bleed was achieved via cardiac puncture. […]

Data set [3] has as its system male GK Wistar rats. Briefly: Haematology assays in Goto-Kakizaki rats. The method, then: as §1, §2

Consider “QQLLGTGRVQGYDGYFVLSVEQYLELSDSANNIHFMRQSEI-NH2 (C-terminus assumed) [TCAP-1]”, for which the haemoglobin concentrations result in data set [1] (Wistar rats, 1 or 10 nmole/kg (FIG. 6A)) is given as “No significant results were observed”; in data set [3] (10 nmole/kg (FIG. 6G)) it was “No significant results were observed”. In addition, the hematocrit counts result was “No significant results were observed” in data set [1] (Wistar rats, 1 or 10 nmole/kg (FIG. 6B)) and “No significant results were observed” in data set [3] (10 nmole/kg (FIG. 6H)). The platelet counts result in data set [1] (Wistar rats, 1 or 10 nmole/kg (FIG. 6C)) is recorded as “No significant results were observed”; in data set [3] (10 nmole/kg (FIG. 6I)), “No significant results were observed”. The “red blood cell counts” value is “No significant results were observed” in data set [1] (Wistar rats, 1 or 10 nmole/kg (FIG. 6D)) and “No significant results were observed” in data set [3] (10 nmole/kg (FIG. 6J)). For the same substance, the “levels of white blood cells, neutrophils or lymphocytes” value is “No significant results were observed” in data set [1] (Wistar rats, 1 or 10 nmole/kg (FIG. 6E)) and “No significant results were observed” in data set [3] (10 nmole/kg (FIG. 6K)). Further, the “monocytes, basophils or eosinophils” value in data set [1] (Wistar rats, 1 or 10 nmole/kg (FIG. 6F)) was “No significant results were observed”; in data set [3] (10 nmole/kg (FIG. 6L)), “No significant results were observed”. For the same substance, the “clot formation in blood samples” value in data set [1] (observation on collected blood samples) is “clots formed more frequently in the blood samples of TCAP-1 treated rats”. The “time of peak in plasma” value in data set [2] (IV administered, rat plasma) is at most 1 min. Besides, the “time until cleared from plasma” value in data set [2] (IV-treated animals) is listed as “about 100 min”; in data set [2] (SC treated animals, highest dose of 125 ng/kg), “about 170 min”. In data set [2] (SC administered, rat plasma), the “time to 50% loss from plasma” value is reported as “about 90 min”. Moreover, the half-life was 16 ± 4 min in data set [2] (iv, highest dose, read-out: plasma clearance half-life); 4 ± 1 min in data set [2] (iv, lowest dose, read-out: plasma clearance half-life); 7 ± 2 min in data set [2] (iv, mid dose, read-out: plasma clearance half-life); 36 ± 20 min in data set [2] (sc, highest dose, read-out: clearance time (plasma clearance half-life)); 40 ± 4 min in data set [2] (sc, lowest dose, read-out: clearance time (plasma clearance half-life)); 50 ± 11 min in data set [2] (sc, mid dose, read-out: clearance time (plasma clearance half-life)). Besides, the “white blood cells, neutrophils and lymphocytes, trend” value in data set [3] (results called variable and inconclusive) was “appears to be a decrease in white blood cells, neutrophils and lymphocytes”.
